This assay relates to Cochliobolus miyabeanus. Briefly: activity against brown spot of rice caused by Cochliobolus miyabeanus, protective application (potted rice seedlings). Format: in vivo. Particulars: individual active compound, rice cultivar Tai-Nong 67, protective spray, evaluated after six days. How it is done:
The active compounds, separately or jointly, were prepared as a stock solution with 0.25% by weight of active compound in acetone or DMSO. 1% by weight of the emulsifier Uniperol® EL (wetting agent having emulsifying and dispersing action based on ethoxylated alkylphenols) was added to this solution, and the solution was diluted with water to the desired concentration.
Use example—activity against brown spot of rice caused by Cochliobolus miyabeanus, protective application
Leaves of potted rice seedlings of the cultivar “Tai-Nong 67” were sprayed to runoff point with an aqueous suspension of the concentration of active compound stated below. The next day, the plants were inoculated with an aqueous spore suspension of Cochliobolus miyabeanus. The test plants were then placed in climatized chambers at 22-24° C. and 95-99% relative atmospheric humidity for six days. The extent of the development of the infection on the leaves was then determined visually.
Evaluation was carried out by determining the percentage of infected leaf area. These percentages were converted into efficacies.
The efficacy (E) is calculated as follows using Abbot's formula: E=(1−α/β)·100 • α corresponds to the fungicidal infection of the treated plants in % and • β corresponds to the fungicidal infection of the untreated (control) plants in %
An efficacy of 0 means that the infection level of the treated plants corresponds to that of the untreated control plants; an efficacy of 100 means that the treated plants were not infected.
The expected efficacies of mixtures of active compounds are determined using Colby's formula (R. S. Colby, Weeds, 15, 20-22, 1967) and compared with the observed efficacies.
Colby's formula: E=x+y−x·y/100 • E expected efficacy, expressed in % of the untreated control, when using the mixture of the active compounds A and B at the concentrations a and b • x efficacy, expressed in % of the untreated control, when using the active compound A at the concentration a • y efficacy, expressed in % of the untreated control, when using the active compound B at the concentration b

As for `S1SSSSSSS1` [II (sulfur), sulfur], the “Efficacy in % of the untreated control” value runs as follows: (1 ppm in the spray liquor) 4%; (4 ppm in the spray liquor) 4%.
`C[C@H](Nc1c(-c2c(F)cc(F)cc2F)c(Cl)nc2ncnn12)C(F)(F)F` [comparative compound B]: the “Efficacy in % of the untreated control” value came to 0% (1 ppm in the spray liquor) and 16% (4 ppm in the spray liquor).
The matching figures for `CC1CCN(c2c(-c3c(F)cc(F)cc3F)c(Cl)nc3ncnn23)CC1` [I, 5-chloro-7-(4-methylpiperidin-1-yl)-6-(2,4,6-trifluorophenyl)-[1,2,4]tri-azolo[1,5-a]pyrimidine]: 4% and 28%.
Regarding `CC1CCN(c2c(-c3c(F)cccc3F)c(Cl)nc3ncnn23)CC1` [comparative compound A], the “Efficacy in % of the untreated control” value is, setting by setting: (1 ppm in the spray liquor) 28%; (4 ppm in the spray liquor) 40%.

Values taken from patent US20070071833A1, “Fungicidal mixtures for controlling rice pathogens” (BASF Aktiengesellschaft, priority 2003, published 2007).
